Assay results taken from patent US20200163984A1, “USE OF ISOVALERYL SPIRAMYCIN I, II AND/OR III IN MANUFACTURING MEDICAMENT FOR TREATING AND/OR PREVENTING TUMOR, AND MEDICAMENT” (SHENYANG FUYANG PHARMACEUTICAL TECHNOLOGY CO., LTD., priority 2017, published 2020).

Experiments:
[1] = test system: transplanted tumor of human gastric adenocarcinoma cell SGC7901; experiment: SGC7901 transplanted tumor in nude mice
Description: (§1) Then cell concentration was adjusted to 1×10^7/ml with matrigel, then each nude mouse was inoculated subcutaneously with 0.2 ml of cells at its right armpit and recorded as the first day of inoculation. When the tumor grows to be greater than or equal to 100 mm^3, the mice were randomly divided into 11 groups with 6 mice in each group: a model group, a cyclophosphamide group, isovaleryl spiramycin I groups with doses of 25, 50 and 100 mg/kg, isovaleryl spiramycin II groups with doses of 25, 50 and 100 mg/kg, and isovaleryl spiramycin III groups with doses of 25, 50 and 100 mg/kg. Each group was continuously administered intragastrically for 30 days with a dose of 20 ml/kg. The mice were sacrificed the next day after drug withdrawal and the indicators were tested. The long diameter and short diameter of the tumor, and the body weight of each mouse were recorded every 3 days from drug administration to nude mouse sacrifice.
(§2) The body weight of the nude mice and the long diameter (a) and short diameter (b) of the transplanted tumor were measured every 3 days, and the tumor volume (v), relative tumor volume (RTV) and relative tumor proliferation rate (T/C) are calculated respectively according to the following formulas, wherein V=a×b^2/2; RTV=V/V0 (V0 is the tumor volume before administration, V is the tumor volume before sacrifice), and T/C (%)=treatment group RTV/model control group RTV×100%.
(§3) Each mouse was weighed and sacrificed. After the tumor was completely stripped off from the body of the mouse, the non-tumor tissues such as blood stains and fat were removed to weigh the tumor and calculate the tumor growth inhibition rate. The average tumor weight of each group of mice is used as an indicator of efficacy. Tumor growth inhibition rate (%)=(1−the average tumor weight of the treatment group/the average tumor weight of the model group)×100%.

[2] = test system: transplanted tumor of human renal clear cell adenocarcinoma cell 786-O; experiment: 786-O transplanted tumor in nude mice; settings: for Tumor Volume (mm3) (d 1): d1
Description: as §1, with “786-O cells in a logarithmic growth phase were taken and subjected to a trypan blue exclusion experiment showing that the cell viability was more than 95%, then the cells were subjected to trypsinization, centrifugation, and supernatant removal. Then” for “Then”
as §2, §3

[3] = test system: transplanted tumor of mouse H22 liver cancer; experiment: Transplanted tumor of mouse H22 liver cancer; settings: for Tumor Volume (mm3) (d30): d 30; for Body Weight (g) (d1) / Body Weight (g) (d 7): mouse, in vivo
Description: The H22 cell strains cryopreserved in liquid nitrogen were resuscitated in Kunming mice. After 3 generations, the ascites of Kunming mice were taken and placed in a 50 ml centrifuge tube in which 10 ml of 0.9% normal saline was added, and then centrifuging was performed at 1000 rpm for 5 min at room temperature, and the obtained supernatant was removed. Then 10 ml of 0.9% normal saline was added to the tube to blow and mix well, and then the mixture was diluted to 5×10^6 live cells/ml with normal saline after counting. The tube was stored in ice water, and 75% ethanol was used to disinfect the skin under the right armpits of the mice. Each Kunming mouse was soon inoculated subcutaneously with 0.2 ml of the cells at the armpit of the right forelimb.
In the H22 liver cancer model, the mice inoculated with the tumor were randomly divided into groups with 10 mice in each group on the next day of inoculation. The groups included: a model control group, a positive drug cyclophosphamide control group (CTX, 26 mg/kg), isovaleryl spiramycin I groups with doses of 13, 26 and 52 mg/kg; isovaleryl spiramycin II groups with doses of 13, 26 and 52 mg/kg; isovaleryl spiramycin III groups with doses of 13, 26 and 52 mg/kg. Each group was continuously administered intragastrically for 7 days with a dose of 20 ml/kg.
The tumor-bearing mice were weighed and sacrificed the next day after the last administration. The subcutaneous tumors were dissected and weighed. The average tumor weight of each group is calculated, and the tumor inhibition rate is calculated.
Tumor inhibition rate=(1−T/C)×100%
T: average tumor weight of the drug-administered group; C: average tumor weight of the blank control group.

[4] = SGC7901, 12.5 mg/kg (low dose) i.g. 30 days
[5] = SGC7901, 25 mg/kg (medium dose) i.g. 30 days
[6] = SGC7901, 50 mg/kg (high dose) i.g. 30 days
[7] = 786-O, high dose (100 mg/kg in method) i.g. 30 days
[8] = 786-O, low dose (25 mg/kg in method) i.g. 30 days
[9] = 786-O, medium dose (50 mg/kg in method) i.g. 30 days

## COC1C(OC(C)=O)CC(=O)OC(C)CC=CC=CC(OC2CCC(N(C)C)C(C)O2)C(C)CC(CC=O)C1OC1OC(C)C(OC2CC(C)(O)C(OC(=O)CC(C)C)C(C)O2)C(N(C)C)C1O (centres unmarked) [Isovaleryl spiramycin II, isovaleryl spiramycin II]
[1]; [4]
  Inhibition Rate (tumor growth inhibition rate): 24.44%
  Relative Tumor Proliferation Rate (T/C): 70.48%
  Relative Tumor Volume (RTV): 7.90 ± 6.97
  Tumor Volume (d 1): 134.33 ± 57.77 mm3
  Tumor Volume (d 30): 1029.72 ± 818.01 mm3
  Tumor Weight: 1.19 ± 0.62 g
[1]; [5]
  Inhibition Rate (tumor growth inhibition rate): 41.76%
  Relative Tumor Proliferation Rate (T/C): 51.42%
  Relative Tumor Volume (RTV): 6.88 ± 5.66
  Tumor Volume (d 1): 195.76 ± 76.95 mm3
  Tumor Volume (d 30): 1094.82 ± 687.01 mm3
  Tumor Weight: 0.91 ± 0.53 g
[1]; [6]
  Inhibition Rate (tumor growth inhibition rate): 70.24%
  Relative Tumor Proliferation Rate (T/C): 36.95%
  Relative Tumor Volume (RTV): 6.90 ± 7.37
  Tumor Volume (d 1): 143.85 ± 16.25 mm3
  Tumor Volume (d 30): 577.98 ± 411.47 mm3
  Tumor Weight: 0.47 ± 0.42 g
[1]; SGC7901, low, medium and high doses, P<0.05
  tumor volume and relative tumor volume compared with the model group: significantly lower
[1]; mouse, in vivo
  mouse weight compared with the model group: no significant changes
[2]; 786-O nude mice, 25 mg/kg
  Inhibition Rate (%): 19.69%
  Relative Tumor Proliferation Rate (T/C): 76.92%
  Relative Tumor Volume (RTV): 14.62 ± 1.93
  Tumor Weight: 1.72 ± 0.27 g
  Tumor Volume (mm3) (d 1): 96.82 ± 8.52 mm3
  Tumor Volume (mm3) (d30): 1415.80 ± 201.11 mm3
[2]; 786-O nude mice, 50 mg/kg
  Inhibition Rate (%): 41.09%
  Relative Tumor Proliferation Rate (T/C): 53.61%
  Relative Tumor Volume (RTV): 10.19 ± 2.62
  Tumor Weight: 1.26 ± 0.31 g
  Tumor Volume (mm3) (d 1): 96.82 ± 8.52 mm3
  Tumor Volume (mm3) (d30): 982.68 ± 265.02 mm3
[2]; 786-O nude mice, 100 mg/kg
  Inhibition Rate (%): 60.00%
  Relative Tumor Proliferation Rate (T/C): 35.74%
  Relative Tumor Volume (RTV): 6.79 ± 1.65
  Tumor Weight: 0.85 ± 0.16 g
  Tumor Volume (mm3) (d 1): 103.26 ± 9.71 mm3
  Tumor Volume (mm3) (d30): 701.57 ± 127.91 mm3
[2]; [7]
  Relative Tumor Proliferation Rate (T/C): 35.74%
  tumor growth inhibition rate: 60.00%
[2]; [8]
  Relative Tumor Proliferation Rate (T/C): 76.92%
  tumor growth inhibition rate: 19.69%
[2]; 786-O, low, medium and high doses, P<0.05
  tumor volume and relative tumor volume compared with the model group: significantly lower
[2]; [9]
  Relative Tumor Proliferation Rate (T/C): 53.61%
  tumor growth inhibition rate: 41.09%
[2]; mouse, in vivo
  mouse weight compared with the model group: no significant changes
[2]; mouse, in vivo, 25 mg/kg
  Body Weight (g) (d1): 22.05 ± 0.71 g
  Body Weight (g) (d30): 23.33 ± 0.54 g
[2]; mouse, in vivo, 50 mg/kg
  Body Weight (g) (d1): 22.42 ± 0.54 g
  Body Weight (g) (d30): 23.42 ± 0.50 g
[2]; mouse, in vivo, 100 mg/kg
  Body Weight (g) (d1): 22.33 ± 0.41 g
  Body Weight (g) (d30): 23.45 ± 0.91 g
[3]; 13, 26 and 52 mg/kg i.g. 7 days
  growth of H22 liver cancer in mice: significantly inhibit
[3]; dose 12.5 mg/kg
  Relative Tumor Proliferation Rate (T/C): 78.85
  Relative Tumor Volume (RTV): 7.83 ± 1.50
  Tumor Volume (mm3) (d 1): 120.80 ± 18.48 mm3
  Tumor Volume (mm3) (d30): 931.38 ± 141.51 mm3
[3]; dose 13 mg/kg
  Inhibition Rate (%): 19.74%
  Tumor: 1.22 ± 0.31 g
[3]; dose 25 mg/kg
  Relative Tumor Proliferation Rate (T/C): 66.04
  Relative Tumor Volume (RTV): 6.56 ± 2.19
  Tumor Volume (mm3) (d 1): 118.02 ± 10.35 mm3
  Tumor Volume (mm3) (d30): 779.30 ± 292.34 mm3
[3]; dose 26 mg/kg
  Inhibition Rate (%): 30.26%
  Tumor: 1.06 ± 0.33 g
[3]; dose 50 mg/kg
  Relative Tumor Proliferation Rate (T/C): 56.20
  Relative Tumor Volume (RTV): 5.58 ± 0.95
  Tumor Volume (mm3) (d 1): 118.18 ± 14.68 mm3
  Tumor Volume (mm3) (d30): 659.02 ± 138.35 mm3
[3]; dose 52 mg/kg
  Inhibition Rate (%): 45.39%
  Tumor: 0.83 ± 0.46 g
[3]; 13 mg/kg
  Body Weight (g) (d1): 24.22 ± 2.15 g
  Body Weight (g) (d 7): 27.27 ± 2.20 g
[3]; 26 mg/kg
  Body Weight (g) (d1): 24.72 ± 1.69 g
  Body Weight (g) (d 7): 27.35 ± 0.80 g
[3]; 52 mg/kg
  Body Weight (g) (d1): 23.45 ± 1.69 g
  Body Weight (g) (d 7): 27.02 ± 0.90 g
